Reference: ChEMBL document CHEMBL4396974, “Synthesis and evaluation of a novel quinoline-triazole analogs for antitubercular properties via molecular hybridization approach” (Bioorg Med Chem Lett, 2019)
In brackets after ≈: the same amount, converted by molar mass. Activity calls are given as the source filed them. No cut-off for these calls is given here.

Test system: Mycobacterium tuberculosis variant bovis
Assay: Antimycobacterial activity against Mycobacterium bovis assessed as 90 percent growth inhibition measured after 120 hrs by turbidometric analysis
Type: functional

Structure (SMILES) | MIC90
COc1nc2ccc(Br)cc2cc1C(c1ccccc1)n1cc(-c2ccccc2C(F)(F)F)nn1 (configuration not stated) | 174 µM (≈ 93.8 µg/mL)
CCCCCCCCc1cn(C(c2ccccc2)c2cc3cc(Br)ccc3nc2OC)nn1 (configuration not stated) | 34.9 µM (≈ 17.7 µg/mL)
COc1nc2ccc(Br)cc2cc1C(c1ccccc1)n1cc(CCCCCO)nn1 (configuration not stated) | 59.6 µM (≈ 28.7 µg/mL)
COc1nc2ccc(Br)cc2cc1C(c1ccccc1)n1cc(-c2ccccc2F)nn1 (configuration not stated) | inactive
COc1nc2ccc(Br)cc2cc1C(c1ccccc1)n1cc(CO)nn1 (configuration not stated) | 131 µM (≈ 55.7 µg/mL)
CCCCCCCc1cn(C(c2ccccc2)c2cc3cc(Br)ccc3nc2OC)nn1 (configuration not stated) | 71.9 µM (≈ 35.5 µg/mL)
CCCCCCc1cn(C(c2ccccc2)c2cc3cc(Br)ccc3nc2OC)nn1 (configuration not stated) | 44.4 µM (≈ 21.3 µg/mL)
COc1nc2ccc(Br)cc2cc1C(c1ccccc1)n1cc(-c2ccc(OC(F)(F)F)cc2)nn1 (configuration not stated) | 41 µM (≈ 22.8 µg/mL)
CCCc1cn(C(c2ccccc2)c2cc3cc(Br)ccc3nc2OC)nn1 (configuration not stated) | 45.2 µM (≈ 19.8 µg/mL)
COc1nc2ccc(Br)cc2cc1C(c1ccccc1)n1cc(-c2ccc(F)cc2)nn1 (configuration not stated) | inactive
COc1nc2ccc(Br)cc2cc1C(c1ccccc1)n1cc(-c2ccc(Br)cc2)nn1 (configuration not stated) | 49 µM (≈ 27 µg/mL)
CO[C@H]1/C=C/O[C@@]2(C)Oc3c(C)c(O)c4c(O)c(c(/C=N/N5CCN(C)CC5)c(O)c4c3C2=O)NC(=O)/C(C)=C\C=C\[C@H](C)[C@H](O)[C@@H](C)[C@@H](O)[C@@H](C)[C@H](OC(C)=O)[C@@H]1C [RIFAMPIN] | 2.2 µM (≈ 1.81 µg/mL)
NNC(=O)c1ccncc1 [ISONIAZID] | 12.5 µM (≈ 1.72 µg/mL)
CCOC(=O)c1cn(C(c2ccccc2)c2cc3cc(Br)ccc3nc2OC)nn1 (configuration not stated) | inactive
COc1nc2ccc(Br)cc2cc1C(c1ccccc1)n1cc(CCCO)nn1 (configuration not stated) | inactive
CCCCc1cn(C(c2ccccc2)c2cc3cc(Br)ccc3nc2OC)nn1 (configuration not stated) | 50.2 µM (≈ 22.7 µg/mL)
COc1nc2ccc(Br)cc2cc1C(c1ccccc1)n1cc(CCO)nn1 (configuration not stated) | 133 µM (≈ 58.3 µg/mL)
COc1nc2ccc(Br)cc2cc1C(c1ccccc1)n1cc(C2CC2)nn1 (configuration not stated) | inactive
CCCCCc1cn(C(c2ccccc2)c2cc3cc(Br)ccc3nc2OC)nn1 (configuration not stated) | 80.9 µM (≈ 37.7 µg/mL)
COc1nc2ccc(Br)cc2cc1C(c1ccccc1)n1cc(-c2cccc(F)c2)nn1 (configuration not stated) | 31.4 µM (≈ 15.3 µg/mL)
COc1nc2ccc(Br)cc2cc1C(c1ccccc1)n1cc(-c2ccccc2)nn1 (configuration not stated) | 161 µM (≈ 75.7 µg/mL)
COc1nc2ccc(Br)cc2cc1[C@@H](c1ccccc1)[C@@](O)(CCN(C)C)c1cccc2ccccc12 [BEDAQUILINE] | 0.15 µM (≈ 0.0833 µg/mL)
